Laboratory results reported in US20200087258A1, “INHIBITOR OF CITRATE TRANSPORTER AND THEIR USE IN THERAPY” (Eternygen GmbH, priority 2017, published 2020).

Legend:
[1] = biological target: T1, INDY (Homo sapiens, UniProt Q86YT5); assay: 14C-citrate uptake in HEK293 cells overexpressing recombinant human INDY (NaCT); type: cell-based; parameters: expressed in transfected cells; host or cells: HEK293
Method: (§1) The compound was obtained by screening of a library containing more than 50,000 lead-like compounds and fragments. The library was tested using a functional citrate uptake assay with HEK293 cells overexpressing recombinant human INDY. The following hit confirmation was conducted in the same assay system. To confirm the activity of selected compounds on the target INDY another cell assay was conducted. In this assay system citrate uptake was measured using HepG2 cells which endogenously express INDY. Furthermore selectivity of selected compounds was tested for two other transporters in different assay systems. The first transporter was the glutamate transporter GLT-1 tested in a glutamate uptake assays using HEK293 cells overexpressing recombinant human GLT-1. The second transporter was the glucose transporter GLUT1 tested in a glucose uptake assay using Huh-7 cells which endogenously express GLUT1. Compounds were considered to be selective with an at least 5-fold higher activity for INDY than for the other two transporters.
(§2) Cells were maintained in cell medium using cell culture grade flasks (CellSTACK Corning, 500 cm2 dishes or T175 depending on cell number). The selection antibiotic and G418 (800 μg/ml) was added during cultivation but not for seeding into assay plates. For splitting, cells were washed with PBS (w/o Ca2+, Mg2+, phenol red) and detached with Trypsin/EDTA. Throughout cultivation cells were kept sub-confluent. Detached cells (50,000 cells/well) were seeded in 96-well plates (white, clear bottom from Corning #655098) and incubated over night before usage in the assay. The following media were used. For HEK293 cells expressing INDY MEM (PAA)+10% FCS+1×P/S+2 mM L-Gln; for HEK293 cells expressing GLT-1 DMEM (Gibco)+10% FCS+400 µg/ml G418; for Huh7 cells DMEM (Gibco)+10% FCS+2 mM L-Gin (+1×P/S); for HepG2 cells MEM (PAA, Cat # E15-024)+10% FCS+2 mM L-Gin+1×NEAA+1 mM Na-Pyruvat
(§3) The following assay buffers for the particular uptake reaction were used. Citrate uptake buffer: 120 mM NaCl, 5.4 mM KCl, 0.8 mM MgSO4, 5 mM glucose, 1.8 mM CaCl2, 25 mM Hepes, 25 mM MES, pH 6.5. Glutamate uptake buffer: HBSS, 1 mM CaCl2, 1 mM MgCl2, 20 mM Hepes pH 7.4. Glucose uptake buffer: 25 mM Hepes+25 mM MES pH 7.4, 120 mM NaCl, 5.4 mM KCl, 1.8 mM CaCl2, 0.8 mM MgSO4.
INDY mediated citrate uptake was determined in HEK293 cells. To determine the uptake of ^14C labelled citrate into cells, HEK293 cells over-expressing human NaCT were used. Cloning of human NaCT was done in analogy as described in Birkenfeld et al. (Birkenfeld et al., 2011, Cell Metabolism 14, 184-195, 2011).
Human NaCT HEK293 cells were seeded into white clear-bottom 96-well plates (50,000/well) in the presence of 4 μg/ml Poly-D-Lysine and incubated at 37° C. for 16-24 hours. On the days of the assay the plates were washed once with assay buffer using automated washing/LS 405 Selectors, BioTek ending with a buffer volume of 40 μl. Then 5 μl of compound solution in assay buffer was added and incubated for 5-30 min at 37° C. in cell incubator, HERA cell Heraeus. Afterwards 10 μl of substrate 14C-citrate ([…]/[…] per well) were added and incubated for another 20-90 min at 37° C. in cell incubator, HERAcell. Then plates were washed twice with 200 μl ice-cold assay buffer and residual volume was discarded. For cell lysis 50 μl ice-cold NaOH (100 mM) was added and incubated for 15 minutes at RT on a plate shaker. Finally, 200 μl scintillation fluid (scintillator OptiPhase Supermix, Perkin Elmer) was added. After 15 min incubation at RT without shaking, plates were measured using a TopCount reader system (Perkin Elmer). As a positive control 10 mM citrate was applied. It is possible to use this assay also in analogy in a 384-well plate format.

[2] = biological target: T1, INDY; assay: 14C-citrate uptake in HepG2 cells endogenously expressing INDY (NaCT); type: cell-based; conditions: endogenous INDY
Method: as §1, §2, §3
INDY mediated citrate uptake was also determined in HepG2 cells. To determine the uptake of ^14C labelled citrate into cells, HepG2 cells endogenously expressing human NaCT were used. (Gopal et al. 2007 Am J Physiol Gastrointest Liver Physiol 292).
HepG2 cells were seeded into white clear-bottom 96-well plates (50,000/well) coated with collagen and incubated at 37° C. for 16-24 hours. After that plates were washed once with assay buffer using automated washing/LS 405 Selectors, BioTek ending with a buffer volume of 40 μl. Then 5 μl of compound solution in assay buffer was added and incubated for 5 min at 37° C. in cell incubator, HERA cell Heraeus. Afterwards 10 μl of substrate 14C-citrate (10 nM) were added and incubated for another 90 min at 37° C. in cell incubator, HERAcell. Then plates were washed 3× with 200 μl buffer and […] cell lysis induced by adding 50 μl ice-cold NaOH (100 mM). Plates were incubated for 25 min at RT on a plate shaker and afterwards 200 μl scintillation fluid was added and incubated for 15 min on a plate shaker at RT and for another 15 min without shaking at RT. Plates were measured using a TopCount system. As a positive control 5 mM citrate was applied. It is possible to use this assay also in analogy in a 384-well plate format.

T1 sequence (Q86YT5 whole entry, the tested form may be a part): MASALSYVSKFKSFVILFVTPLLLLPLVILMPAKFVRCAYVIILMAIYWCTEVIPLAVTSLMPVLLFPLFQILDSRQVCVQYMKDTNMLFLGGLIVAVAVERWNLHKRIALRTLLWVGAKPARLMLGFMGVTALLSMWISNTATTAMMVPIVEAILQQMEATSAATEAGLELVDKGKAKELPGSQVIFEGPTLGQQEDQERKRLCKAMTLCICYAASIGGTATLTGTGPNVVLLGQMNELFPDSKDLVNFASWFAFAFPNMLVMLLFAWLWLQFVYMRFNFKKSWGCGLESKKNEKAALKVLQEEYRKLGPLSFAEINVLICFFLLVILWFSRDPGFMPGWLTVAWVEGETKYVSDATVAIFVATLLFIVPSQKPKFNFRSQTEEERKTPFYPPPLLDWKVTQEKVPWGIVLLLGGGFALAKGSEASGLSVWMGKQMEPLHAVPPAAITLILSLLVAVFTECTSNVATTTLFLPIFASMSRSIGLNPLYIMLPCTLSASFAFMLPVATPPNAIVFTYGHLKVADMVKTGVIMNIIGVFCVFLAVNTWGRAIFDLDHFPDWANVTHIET

Structure (SMILES) | IC50 [1] | IC50 [2]
O=C(NCc1ccccc1CO)C1CCN(S(=O)(=O)/C=C/c2ccccc2)CC1 [Example 69, N-{[2-(hydroxymethyl)phenyl]methyl}-1-[(E)-2-phenylethenesulfonyl]pipendine-4-carboxamide] | 11.7 µM | 4.5 µM
O=C(NCc1ccccn1)C1CCN(S(=O)(=O)c2cc(Cl)cc(C(F)(F)F)c2)CC1 [Example 130, 1-[3-chloro-5-(trifluoromethyl)benzenesulfonyl]-N-[(pyridin-2-yl)methyl]piperidine-4-carboxamide] | 0.7 µM | 0.5 µM
O=C(NCc1ccccn1)C1CCN(S(=O)(=O)c2ccc(I)cc2)CC1 [Example 95, 1-(4-iodobenzenesulfonyl)-N-[(pyridin-2-yl)methyl]piperidine-4-carboxamide] | 5.5 µM | 2.4 µM
O=C(NCc1ccccn1)C1CCN(S(=O)(=O)c2ccc(C3CCCCC3)cc2)CC1 [Example 131, 1-(4-cyclohexylbenzenesulfonyl)-N-[(pyridin-2-yl)methyl]piperidine-4-carboxamide] | 6.1 µM | 4.7 µM
O=C(NCc1ccccc1F)C1CCN(S(=O)(=O)c2ccc(Cl)cc2Cl)CC1 [Example 43, 1-(2,4-dichlorobenzenesulfonyl)-N-[(2-fluorophenyl)methyl]piperidine-4-carboxamide] | 0.3 µM | 0.4 µM
O=C(NCc1ccccc1F)C1CCN(S(=O)(=O)c2ccc3c(c2)OCO3)CC1 [Example 26, 1-(2H-1,3-benzodioxole-5-sulfonyl)-N-[(2-fluorophenyl)methyl]piperidine-4-carboxamide] | 5.2 µM | 15.9 µM
O=C(NCc1ccccn1)C1CCN(S(=O)(=O)c2cccc(C(F)(F)F)c2)CC1 [Example 75, N-[(pyridin-2-yl)methyl]-1-[3-(trifluoromethyl)benzenesulfonyl]pipendine-4-carboxamide] | 5.7 µM | 3.3 µM
O=C(NCc1ccccn1)C1CCN(S(=O)(=O)c2ccc(C(F)(F)F)cc2Cl)CC1 [Example 74, 1-[2-chloro-4-(trifluoromethyl)benzenesulfonyl]-N-[(pyridin-2-yl)methyl]piperidine-4-carboxamide] | 7.1 µM | 5.1 µM
COc1ccccc1CNC(=O)C1CCN(S(=O)(=O)/C=C/c2ccccc2)CC1 [Example 15, N-[(2-methoxyphenyl)methyl]-1-[(E)-2-phenylethenesulfonyl]piperidine-4-carboxamide] | 2.9 µM | 2.7 µM
O=C(NCc1ccccc1O)C1CCN(S(=O)(=O)/C=C/c2ccccc2)CC1 [Example 41, N-[(2-hydroxyphenyl)methyl]-1-[(E)-2-phenylethenesulfonyl]piperidine-4-carboxamide] | 1.8 µM | 3.2 µM
O=C(NCc1ccccn1)C1CCN(S(=O)(=O)c2cc(C(F)(F)F)cc(C(F)(F)F)c2)CC1 [Example 127, 1-[3,5-bis(trifluoromethyl)benzenesulfonyl]-N-[(pyridin-2-yl)methyl]piperidine-4-carboxamide] | 3.2 µM | 1.2 µM
O=C(NCc1ccccn1)C1CCN(S(=O)(=O)c2ccc(C3CC3)cc2)CC1 [Example 97, 1-(4-cyclopropylbenzenesulfonyl)-N-[(pyridin-2-yl)methyl]piperidine-4-carboxamide] | 9.2 µM | 3.8 µM
O=C(NCc1ccccc1F)C1CCN(S(=O)(=O)c2ccc(Cl)c(Cl)c2)CC1 [Example 28, 1-(3,4-dichlorobenzenesulfonyl)-N-[(2-fluorophenyl)methyl]piperidine-4-carboxamide] | > 20 µM | 15.7 µM

Further lines, results first:

IC50 [1] | IC50 [2] | Structure (SMILES)
3.4 µM | 7 µM | O=C(NCc1cccc(F)c1F)C1CCN(S(=O)(=O)/C=C/c2ccccc2)CC1 [Example 22, N-[(2,3-difluorophenyl)methyl]-1-[(E)-2-phenylethenesulfonyl]piperidine-4-carboxamide]
1.5 µM | 2.9 µM | Cc1ccc(S(=O)(=O)N2CCC(C(=O)NCc3ccccc3F)CC2)cc1 [Example 35, N-[(2-fluorophenyl)methyl]-1-(4-methylbenzenesulfonyl)piperidine-4-carboxamide]
0.5 µM | 0.4 µM | O=C(NCc1ccccn1)C1CCN(S(=O)(=O)c2cc(Br)cc(C(F)(F)F)c2)CC1 [Example 126, 1-[3-bromo-5-(trifluoromethyl)benzenesulfonyl]-N-[(pyridin-2-yl)methyl]piperidine-4-carboxamide]
9.3 µM | 4.2 µM | CC(C)Oc1ccc(S(=O)(=O)N2CCC(C(=O)NCc3ccccc3F)CC2)cc1 [Example 24, N-[(2-fluorophenyl)methyl]-1-[4-(propan-2-yloxy)benzenesulfonyl]piperidine-4-carboxamide]
1.6 µM | 7.4 µM | O=C(NCc1ccccn1)C1CCN(S(=O)(=O)c2ccc(C3CCCC3)cc2)CC1 [Example 129, 1-(4-cyclopentylbenzenesulfonyl)-N-[(pyridin-2-yl)methyl]piperidine-4-carboxamide]
0.8 µM | 0.5 µM | O=C(NCc1ccccn1)C1CCN(S(=O)(=O)c2ccc(C3(C(F)(F)F)CC3)cc2)CC1 [Example 125, N-[(pyridin-2-yl)methyl]-1-{4-[1-(trifluoromethyl)cyclopropyl]benzenesulfonyl}piperidine-4-carboxamide]
0.7 µM | 0.7 µM | O=C(NCc1ccccc1F)C1CCN(S(=O)(=O)c2ccc3c(c2)OC(F)(F)O3)CC1 [Example 47, 1-[(2,2-difluoro-2H-1,3-benzodioxol-5-yl)sulfonyl]-N-[(2-fluorophenyl)methyl]piperidine-4-carboxamide]
18.3 µM | 7.2 µM | O=C(NCc1ccccn1)C1CCN(S(=O)(=O)c2ccc(Cl)c(Cl)c2)CC1 [Example 67, 1-(3,4-dichlorobenzenesulfonyl)-N-[(pyridin-2-yl)methyl]piperidine-4-carboxamide]
8.2 µM | 4.6 µM | O=C(NCc1ccccn1)C1CCN(S(=O)(=O)c2cc(Cl)ccc2Cl)CC1 [Example 62, 1-(2,5-dichlorobenzenesulfonyl)-N-[(pyridin-2-yl)methyl]piperidine-4-carboxamide]
 | > 50 µM | O=S(=O)(/C=C/c1ccccc1)N1CCC(CNCc2ccccc2F)CC1 [Example 10, [(2-fluorophenyl)methyl]({1-[(E)-phenylethenesulfonyl]piperidin-4-yl}methyl)amine]
